# Reference: patent US20170319562A1, “Compositions and Methods for Extended Therapy with Aminopyridines” (Acorda Therapeutics, Inc., priority 2009, published 2017)
# Columns and labels:
# [1] = tested on: patients with multiple sclerosis; assay: MS-F202 Phase 2 double-blind placebo-controlled dose-comparison study; format: in vivo, human; design: change in overall Ashworth score, Mean: scale not given here
# Experimental: The Phase 2, dose-ranging study (MS-F202) was a double-blind, randomized, placebo-controlled, parallel group study with dose levels of 4-aminopyridine-SR of 10 mg, 15 mg or 20 mg b.i.d. Patients were titrated to their randomized dose over two weeks; and the fixed-dose treatment phase was 12 weeks in duration. The prospectively defined primary efficacy variable was the percent change from baseline in average walking speed on the T25FW over the last three visits on the assigned stable dose. Other secondary efficacy variables were the other MSFC assessments (9-hole peg test and PASAT 3″), MSFC combined score, LEMMT, the 12-item Multiple Sclerosis Walking Scale (MSWS-12), Multiple Sclerosis Quality of Life Inventory (MSQLI), Ashworth spasticity score, Clinician Global Impression (CGI), and Subject Global Impression (SGI).
# In the study MS-F202, the primary efficacy variable was the percent change from baseline in average walking speed measured using the T25FW. The following sections provide details on the different assessments.
# A total of 206 patients with multiple sclerosis were randomized and 195 completed treatment (50/52 on 4-aminopyridine-SR 10 mg b.i.d., 49/50 on 15 mg b.i.d., 51/57 on 20 mg b.i.d. and 45/47 on placebo). The prospectively defined primary efficacy variable was the percent change from baseline in average walking speed on the T25FW over the last three visits on the assigned dose (Visits 7-9, the post-titration, stable dose period). The secondary efficacy variable was response, defined as a 20% or greater improvement in walking speed during the 12-week stable-dose double-blind treatment period (i.e. measurements at Visits 7-9). Other secondary efficacy variables were the other MSFC assessments (9-hole peg test and PASAT 3″), MSFC combined score, LEMMT, MSWS-12, MSQLI, Ashworth spasticity score, CGI, and SGI.
# This example provides an embodiment of a method of treating subjects with a sustained release 4-aminopyridine formulation and a Responder analysis of the present invention. This was a Phase 2, double-blind, placebo-controlled, parallel group, 20-week treatment study in 206 subjects diagnosed with multiple sclerosis. This study was designed to investigate the safety and efficacy of three dose levels of 4-aminopyridine-SR, 10 mg b.i.d., 15 mg b.i.d., and 20 mg b.i.d. in subjects with clinically definite multiple sclerosis. The primary efficacy endpoint was an increase, relative to baseline, in walking speed, on the Timed 25 Foot Walk. Secondary efficacy measurements included lower extremity manual muscle testing in four groups of lower extremity muscles (hip flexors, knee flexors, knee extensors, and ankle dorsiflexors); the 9-Hole Peg Test and Paced Auditory Serial Addition Test (PASAT 3″); the Ashworth score for spasticity; Spasm Frequency/Severity scores; as well as a Clinician's (CGI) and Subject's (SGI) Global Impressions, a Subject's Global Impression (SGI), the Multiple Sclerosis Quality of Life Inventory (MSQLI) and the 12-Item Multiple Sclerosis Walking Scale (MSW S-12).
# At the first visit (Visit 0), subjects were to enter into a two-week single-blind placebo run-in period for the purpose of establishing baseline levels of function. At Visit 2 subjects were to be randomized to one of four treatment groups (Placebo or 4-aminopyridine-SR 10 mg, 15 mg, 20 mg) and begin two weeks of double-blind dose-escalation in the active drug treatment groups (B, C and D). Group A were to receive placebo throughout the study. Subjects in the 10 mg (Group B) arm of the study took a dose of 10 mg approximately every 12 hours during both weeks of the escalation phase. The 15 mg (Group C) and 20 mg (Group D) dose subjects took a dose of 10 mg approximately every 12 hours during the first week of the escalation phase and titrated up to 15 mg b.i.d. in the second week. Subjects were to be instructed to adhere to an “every 12 hour” dosing schedule. […]
# [2] = tested on: patients with multiple sclerosis; assay: MS-F202EXT open-label extension study; format: in vivo, human; conditions: for patients classified as Extension Timed Walk Responders: cut-off Jul. 31, 2008
# Experimental: Data were presented by study pair (parent and extension).
# In the MS-F202EXT study, which started recruiting patients several months after the completion of the parent study, patients were required to undergo a screening visit prior to dispensing of open-label 4-aminopyridine-SR. The study began with the potential to titrate the dose upward to a maximum of 20 mg b.i.d. with titration visits at weekly intervals. A number of protocol amendments decreased the maximum dose to 15 and then to 10 mg b.i.d. and changed the planned visit intervals, but in the current amended protocol, both the dose (10 mg b.i.d.) and the interval between visits (26 weeks) has been made consistent with MS-F203EXT.
# This Example considers efficacy data collected from the three ongoing, open label extension studies (MS-F202EXT, MS-F203EXT, MS-F204EXT). The primary focus was the Timed 25-Foot Walk, assessed in a manner consistent with its evaluation in the parent double-blind studies. This included the determination of response to treatment using a criterion equivalent to the Timed Walk Response criterion used in the parent studies. […] The clinical meaningfulness of this criterion was evaluated in terms of the Subject and Clinician Global Impression scores recorded during the extension studies.
# In the extension studies, a “Timed Walk Extension Responder” was defined as a patient who achieved a faster walking speed on the T25FW for the majority of on-drug treatment visits during the first year of the study (Visits 1-4 for MS-F203EXT and MS-F204EXT) than the maximum walking speed previously measured for the patient during any off-drug visits in either the parent study or in the extension study.
# [3] = oral, non-sustained release; cited from earlier work
# [4] = Fampridine Non-responders, 1st stbl
# [5] = Fampridine Non-responders, 2nd stbl
# [6] = Fampridine Non-responders, 3rd stbl
# [7] = Fampridine Non-responders, titration
# [8] = Fampridine Responders, 1st stbl
# [9] = Fampridine Responders, 2nd stbl
# [10] = Fampridine Responders, 3rd stbl
# [11] = Fampridine Responders, titration
smiles,measurement,setting,value
Nc1ccncc1 [4-aminopyridine],rate of serious AE's,[1]; 10 mg bid,0%
same,rate of serious AE's,[1]; 15 mg bid,10%
same,rate of serious AE's,[1]; 20 mg bid,12%
same,"mean reduction from baseline in Overall Ashworth Score, range over visits","[1]; 4-aminopyridine Responders, double-blind",−0.18 to −0.11 units
same,"change in overall Ashworth score, Mean",[1]; [4],−0.08
same,"percent change in LEMMT, Mean",[1]; [4],0.10
same,"percent change in Walking Speed, Mean",[1]; [4],3.5
same,"change in overall Ashworth score, Mean",[1]; [5],−0.07
same,"percent change in LEMMT, Mean",[1]; [5],0.09
same,"percent change in Walking Speed, Mean",[1]; [5],−0.2
same,"change in overall Ashworth score, Mean",[1]; [6],0.00
same,"percent change in LEMMT, Mean",[1]; [6],0.10
same,"percent change in Walking Speed, Mean",[1]; [6],−6.5
same,"change in overall Ashworth score, Mean",[1]; [7],−0.16
same,"percent change in LEMMT, Mean",[1]; [7],0.12
same,"percent change in Walking Speed, Mean",[1]; [7],8.3
same,"change in overall Ashworth score, Mean",[1]; [8],−0.18
same,"percent change in LEMMT, Mean",[1]; [8],0.09
same,"percent change in Walking Speed, Mean",[1]; [8],24.6
same,"change in overall Ashworth score, Mean",[1]; [9],−0.11
same,"percent change in LEMMT, Mean",[1]; [9],0.09
same,"percent change in Walking Speed, Mean",[1]; [9],29.0
same,"change in overall Ashworth score, Mean",[1]; [10],−0.18
same,"percent change in LEMMT, Mean",[1]; [10],0.17
same,"percent change in Walking Speed, Mean",[1]; [10],27.3
same,"change in overall Ashworth score, Mean",[1]; [11],−0.14
same,"percent change in LEMMT, Mean",[1]; [11],0.18
same,"percent change in Walking Speed, Mean",[1]; [11],27.4
same,post hoc Responder rate (consistently faster walking speeds on drug),[1]; combined/pooled 4-aminopyridine-SR groups,approximately 37%
same,patients classified as Extension Timed Walk Responders,[2]; all patients,15.7%
same,Extension Timed Walk Response rate within year,"[2]; double-blind Non-Responders, year 1",11.1%
same,Extension Timed Walk Response rate within year,"[2]; double-blind Non-Responders, year 2",5.2%
same,Extension Timed Walk Response rate within year,"[2]; double-blind Non-Responders, year 3",6.1%
same,Extension Timed Walk Response rate within year,"[2]; double-blind Responders, year 1",25.6%
same,Extension Timed Walk Response rate within year,"[2]; double-blind Responders, year 2",23.1%
same,Extension Timed Walk Response rate within year,"[2]; double-blind Responders, year 3",22.2%
same,patients classified as Extension Timed Walk Responders,[2]; parent-study treated Timed Walk Non-Responders,9.5%
same,patients classified as Extension Timed Walk Responders,[2]; parent-study treated Timed Walk Responders,25.6%
same,Extension Timed Walk Response rate within year,"[2]; placebo treated in parent study, year 1",17.9%
same,Extension Timed Walk Response rate within year,"[2]; placebo treated in parent study, year 2",4.6%
same,Extension Timed Walk Response rate within year,"[2]; placebo treated in parent study, year 3",5.3%
same,patients classified as Extension Timed Walk Responders,[2]; placebo-treated in parent study,14.3%
same,time of peak plasma concentrations after dosing,[3],≤ 1 h
